Assay results taken from ChEMBL document CHEMBL3044736, “Synthesis, characterization, solvatochromic properties, and antimicrobial evaluation of 5-acetyl-2-thioxo-dihydro-pyrimidine-4,6-dione-based chalcones” (2013).
Values after ≈ are worked out from the molar mass of the structure shown.

Tests used:
Type in all cases: functional
[1] = tested on: Penicillium; assay: Antimicrobial activity against Penicillium wild strain assessed as diameter of growth inhibition zone at 250 ug/ml after 48-96 hr by agar cup diffusion method; details: read-out: DIZ
[2] = tested on: Penicillium; assay: Antimicrobial activity against Penicillium wild strain assessed as diameter of growth inhibition zone at 100 ug/ml after 48-96 hr by agar cup diffusion method; details: read-out: DIZ
[3] = tested on: Trichophyton rubrum; assay: Antimicrobial activity against Trichophyton rubrum MTCC 296 assessed as diameter of growth inhibition zone at 100 ug/ml after 48-96 hr by agar cup diffusion method; details: read-out: DIZ
[4] = tested on: Aspergillus clavatus; assay: Antimicrobial activity against Aspergillus clavatus MTCC 1323 assessed as diameter of growth inhibition zone at 100 ug/ml after 48-96 hr by agar cup diffusion method; details: read-out: DIZ
[5] = tested on: Candida albicans; assay: Antimicrobial activity against Candida albicans MTCC 227 assessed as diameter of growth inhibition zone at 100 ug/ml after 48-96 hr by agar cup diffusion method; details: read-out: DIZ
[6] = tested on: Penicillium; assay: Antimicrobial activity against Penicillium wild strain assessed as diameter of growth inhibition zone at 50 ug/ml after 48-96 hr by agar cup diffusion method; details: read-out: DIZ
[7] = tested on: Trichophyton rubrum; assay: Antimicrobial activity against Trichophyton rubrum MTCC 296 assessed as diameter of growth inhibition zone at 50 ug/ml after 48-96 hr by agar cup diffusion method; details: read-out: DIZ
[8] = tested on: Aspergillus clavatus; assay: Antimicrobial activity against Aspergillus clavatus MTCC 1323 assessed as diameter of growth inhibition zone at 50 ug/ml after 48-96 hr by agar cup diffusion method; details: read-out: DIZ
[9] = tested on: Candida albicans; assay: Antimicrobial activity against Candida albicans MTCC 227 assessed as diameter of growth inhibition zone at 50 ug/ml after 48-96 hr by agar cup diffusion method; details: read-out: DIZ
[10] = tested on: Penicillium; assay: Antimicrobial activity against Penicillium wild strain assessed as diameter of growth inhibition zone at 25 ug/ml after 48-96 hr by agar cup diffusion method; details: read-out: DIZ
[11] = tested on: Trichophyton rubrum; assay: Antimicrobial activity against Trichophyton rubrum MTCC 296 assessed as diameter of growth inhibition zone at 25 ug/ml after 48-96 hr by agar cup diffusion method; details: read-out: DIZ
[12] = tested on: Aspergillus clavatus; assay: Antimicrobial activity against Aspergillus clavatus MTCC 1323 assessed as diameter of growth inhibition zone at 25 ug/ml after 48-96 hr by agar cup diffusion method; details: read-out: DIZ
[13] = tested on: Candida albicans; assay: Antimicrobial activity against Candida albicans MTCC 227 assessed as diameter of growth inhibition zone at 25 ug/ml after 48-96 hr by agar cup diffusion method; details: read-out: DIZ
[14] = tested on: Penicillium; assay: Antimicrobial activity against Penicillium wild strain by agar cup diffusion method
[15] = tested on: Aspergillus clavatus; assay: Antimicrobial activity against Aspergillus clavatus MTCC 1323 by agar cup diffusion method
[16] = tested on: Pseudomonas aeruginosa; assay: Antimicrobial activity against Pseudomonas aeruginosa MTCC 1688 assessed as diameter of growth inhibition zone at 25 ug/ml after 18-24 hr by agar cup diffusion method; details: read-out: DIZ
[17] = tested on: Escherichia coli; assay: Antimicrobial activity against Escherichia coli MTCC 443 assessed as diameter of growth inhibition zone at 25 ug/ml after 18-24 hr by agar cup diffusion method; details: read-out: DIZ
[18] = tested on: Staphylococcus aureus; assay: Antimicrobial activity against Staphylococcus aureus MTCC 96 assessed as diameter of growth inhibition zone at 25 ug/ml after 18-24 hr by agar cup diffusion method; details: read-out: DIZ
[19] = tested on: Streptococcus pyogenes; assay: Antimicrobial activity against Streptococcus pyogenes MTCC 442 assessed as diameter of growth inhibition zone at 25 ug/ml after 18-24 hr by agar cup diffusion method; details: read-out: DIZ
[20] = tested on: Klebsiella pneumoniae; assay: Antimicrobial activity against Klebsiella pneumoniae MTCC 109 by agar cup diffusion method
[21] = tested on: Escherichia coli; assay: Antimicrobial activity against Escherichia coli MTCC 443 by agar cup diffusion method
[22] = tested on: Pseudomonas aeruginosa; assay: Antimicrobial activity against Pseudomonas aeruginosa MTCC 1688 by agar cup diffusion method
[23] = tested on: Staphylococcus aureus; assay: Antimicrobial activity against Staphylococcus aureus MTCC 96 by agar cup diffusion method
[24] = tested on: Streptococcus pyogenes; assay: Antimicrobial activity against Streptococcus pyogenes MTCC 442 by agar cup diffusion method
[25] = tested on: Trichophyton rubrum; assay: Antimicrobial activity against Trichophyton rubrum MTCC 296 by agar cup diffusion method
[26] = tested on: Candida albicans; assay: Antimicrobial activity against Candida albicans MTCC 227 by agar cup diffusion method
[27] = tested on: Klebsiella pneumoniae; assay: Antimicrobial activity against Klebsiella pneumoniae MTCC 109 assessed as diameter of growth inhibition zone at 250 ug/ml after 18-24 hr by agar cup diffusion method; details: read-out: DIZ
[28] = tested on: Pseudomonas aeruginosa; assay: Antimicrobial activity against Pseudomonas aeruginosa MTCC 1688 assessed as diameter of growth inhibition zone at 250 ug/ml after 18-24 hr by agar cup diffusion method; details: read-out: DIZ
[29] = tested on: Escherichia coli; assay: Antimicrobial activity against Escherichia coli MTCC 443 assessed as diameter of growth inhibition zone at 250 ug/ml after 18-24 hr by agar cup diffusion method; details: read-out: DIZ
[30] = tested on: Staphylococcus aureus; assay: Antimicrobial activity against Staphylococcus aureus MTCC 96 assessed as diameter of growth inhibition zone at 250 ug/ml after 18-24 hr by agar cup diffusion method; details: read-out: DIZ
[31] = tested on: Streptococcus pyogenes; assay: Antimicrobial activity against Streptococcus pyogenes MTCC 442 assessed as diameter of growth inhibition zone at 250 ug/ml after 18-24 hr by agar cup diffusion method; details: read-out: DIZ
[32] = tested on: Klebsiella pneumoniae; assay: Antimicrobial activity against Klebsiella pneumoniae MTCC 109 assessed as diameter of growth inhibition zone at 100 ug/ml after 18-24 hr by agar cup diffusion method; details: read-out: DIZ
[33] = tested on: Pseudomonas aeruginosa; assay: Antimicrobial activity against Pseudomonas aeruginosa MTCC 1688 assessed as diameter of growth inhibition zone at 100 ug/ml after 18-24 hr by agar cup diffusion method; details: read-out: DIZ
[34] = tested on: Escherichia coli; assay: Antimicrobial activity against Escherichia coli MTCC 443 assessed as diameter of growth inhibition zone at 100 ug/ml after 18-24 hr by agar cup diffusion method; details: read-out: DIZ
[35] = tested on: Staphylococcus aureus; assay: Antimicrobial activity against Staphylococcus aureus MTCC 96 assessed as diameter of growth inhibition zone at 100 ug/ml after 18-24 hr by agar cup diffusion method; details: read-out: DIZ
[36] = tested on: Streptococcus pyogenes; assay: Antimicrobial activity against Streptococcus pyogenes MTCC 442 assessed as diameter of growth inhibition zone at 100 ug/ml after 18-24 hr by agar cup diffusion method; details: read-out: DIZ
[37] = tested on: Klebsiella pneumoniae; assay: Antimicrobial activity against Klebsiella pneumoniae MTCC 109 assessed as diameter of growth inhibition zone at 50 ug/ml after 18-24 hr by agar cup diffusion method; details: read-out: DIZ
[38] = tested on: Pseudomonas aeruginosa; assay: Antimicrobial activity against Pseudomonas aeruginosa MTCC 1688 assessed as diameter of growth inhibition zone at 50 ug/ml after 18-24 hr by agar cup diffusion method; details: read-out: DIZ
[39] = tested on: Escherichia coli; assay: Antimicrobial activity against Escherichia coli MTCC 443 assessed as diameter of growth inhibition zone at 50 ug/ml after 18-24 hr by agar cup diffusion method; details: read-out: DIZ
[40] = tested on: Staphylococcus aureus; assay: Antimicrobial activity against Staphylococcus aureus MTCC 96 assessed as diameter of growth inhibition zone at 50 ug/ml after 18-24 hr by agar cup diffusion method; details: read-out: DIZ
[41] = tested on: Streptococcus pyogenes; assay: Antimicrobial activity against Streptococcus pyogenes MTCC 442 assessed as diameter of growth inhibition zone at 50 ug/ml after 18-24 hr by agar cup diffusion method; details: read-out: DIZ
[42] = tested on: Klebsiella pneumoniae; assay: Antimicrobial activity against Klebsiella pneumoniae MTCC 109 assessed as diameter of growth inhibition zone at 25 ug/ml after 18-24 hr by agar cup diffusion method; details: read-out: DIZ
[43] = tested on: Trichophyton rubrum; assay: Antimicrobial activity against Trichophyton rubrum MTCC 296 assessed as diameter of growth inhibition zone at 250 ug/ml after 48-96 hr by agar cup diffusion method; details: read-out: DIZ
[44] = tested on: Aspergillus clavatus; assay: Antimicrobial activity against Aspergillus clavatus MTCC 1323 assessed as diameter of growth inhibition zone at 250 ug/ml after 48-96 hr by agar cup diffusion method; details: read-out: DIZ
[45] = tested on: Candida albicans; assay: Antimicrobial activity against Candida albicans MTCC 227 assessed as diameter of growth inhibition zone at 250 ug/ml after 48-96 hr by agar cup diffusion method; details: read-out: DIZ

`O=C(/C=C/c1ccc2ccccc2c1)C1C(=O)NC(=S)NC1=O` was tested, and the zone of inhibition at 250 µg/mL [1] was 23 mm, the zone of inhibition at 100 µg/mL [2] was 21 mm and the zone of inhibition at 100 µg/mL [3] was 22 mm. For the same molecule, the zone of inhibition at 100 µg/mL [4] was 25 mm, the zone of inhibition at 100 µg/mL [5] was 24 mm and the zone of inhibition at 50 µg/mL [6] was 18 mm. The zone of inhibition at 50 µg/mL [7] was 20 mm, the zone of inhibition at 50 µg/mL [8] was 20 mm and the zone of inhibition at 50 µg/mL [9] was 22 mm. For the same molecule, the zone of inhibition at 25 µg/mL [10] was 18 mm, the zone of inhibition at 25 µg/mL [11] was 18 mm and the zone of inhibition at 25 µg/mL [12] was 18 mm. It also gave a zone of inhibition at 25 µg/mL [13] of 22 mm, an MFC [14] of 1000 µg/mL (≈ 3080 µM) and an MIC [14] of 1000 µg/mL (≈ 3080 µM). For the same molecule, the MFC [15] was > 1000 µg/mL, the MIC [15] was > 1000 µg/mL and the zone of inhibition at 25 µg/mL [16] was 10 mm. The zone of inhibition at 25 µg/mL [17] was 14 mm, the zone of inhibition at 25 µg/mL [18] was 10 mm and the zone of inhibition at 25 µg/mL [19] was 14 mm. For the same molecule, the MBC [20] was 200 µg/mL (≈ 617 µM), the MIC [20] was 125 µg/mL (≈ 385 µM) and the MBC [21] was 500 µg/mL (≈ 1540 µM). The MIC [21] was 250 µg/mL (≈ 771 µM), the MBC [22] was 125 µg/mL (≈ 385 µM) and the MIC [22] was 100 µg/mL (≈ 308 µM). The MBC [23] was 250 µg/mL (≈ 771 µM), the MIC [23] was 200 µg/mL (≈ 617 µM) and the MBC [24] was 250 µg/mL (≈ 771 µM). The MIC [24] was 250 µg/mL (≈ 771 µM), the MFC [25] was 1000 µg/mL (≈ 3080 µM) and the MIC [25] was 1000 µg/mL (≈ 3080 µM). For the same molecule, the MFC [26] was > 1000 µg/mL, the MIC [26] was > 1000 µg/mL and the zone of inhibition at 250 µg/mL [27] was 20 mm. It also gave a zone of inhibition at 250 µg/mL [28] of 19 mm, a zone of inhibition at 250 µg/mL [29] of 21 mm and a zone of inhibition at 250 µg/mL [30] of 19 mm. For the same molecule, the zone of inhibition at 250 µg/mL [31] was 21 mm, the zone of inhibition at 100 µg/mL [32] was 18 mm and the zone of inhibition at 100 µg/mL [33] was 15 mm. For the same molecule, the zone of inhibition at 100 µg/mL [34] was 18 mm, the zone of inhibition at 100 µg/mL [35] was 15 mm and the zone of inhibition at 100 µg/mL [36] was 18 mm. For the same molecule, the zone of inhibition at 50 µg/mL [37] was 15 mm, the zone of inhibition at 50 µg/mL [38] was 12 mm and the zone of inhibition at 50 µg/mL [39] was 16 mm. It also gave a zone of inhibition at 50 µg/mL [40] of 12 mm, a zone of inhibition at 50 µg/mL [41] of 16 mm and a zone of inhibition at 25 µg/mL [42] of 14 mm. It also gave a zone of inhibition at 250 µg/mL [43] of 23 mm, a zone of inhibition at 250 µg/mL [44] of 25 mm and a zone of inhibition at 250 µg/mL [45] of 25 mm.
